Species: Rattus norvegicus
Assay: Open TG-GATES - Regimen: Daily Repeat
Format: toxicity, organism-based, Sprague-Dawley
Set-up: regimen Daily Repeat, gender Male, age 6 weeks
Conditions: in vivo, iv, route intravenous injection; for gamma-GTP / ALP / ALT / AST / BUN / CRE / DBIL / GLC / IP / K / LDH / PL / RALB / TBIL / TC / TP / TG: tissue Plasma; for KIDNEY_L / KIDNEY_R / KIDNEY_TOTAL: tissue Kidney; for LIVER: tissue Liver
[1] = 30 mg/kg, 72 h, dose level Middle, time 3 day
[2] = 30 mg/kg, 72 h, tissue Blood, dose level Middle, time 3 day
[3] = 30 mg/kg, […], dose level Middle, time 7 day
[4] = 30 mg/kg, […], dose level Middle, time 14 day
[5] = 30 mg/kg, […], dose level Middle, time 28 day
[6] = 30 mg/kg, […], tissue Blood, dose level Middle, time 7 day
[7] = 30 mg/kg, […], tissue Blood, dose level Middle, time 14 day
[8] = 30 mg/kg, […], tissue Blood, dose level Middle, time 28 day

Sequence GENTAMICIN has a gamma-GTP (10 mg/kg, […], dose level Low, time 28 day) of 2 IU/L, a TERMINAL_BW [1] of 231.1 g and an APTT [2] of 22 s. For the same sequence, the Bas [2] was 0%, the Eos [2] was 1% and the Fbg [2] was 292.8 mg/dL. For the same sequence, the Hb [2] was 12.8 g/dL, the Ht [2] was 37.4% and the Lym [2] was 75.4%. For the same sequence, the MCH [2] was 21 pg, the MCHC [2] was 34.2% and the Mono [2] was 3.2%. For the same sequence, the Neu [2] was 19.8%, the PT [2] was 16.5 s and the Plat [2] was 116.2 x10_4/uL. It also gave an RBC [2] of 608.6 x10_4/ul, a Ret [2] of 5.4% and a WBC [2] of 99.7 x10_2/uL. It also gave a KIDNEY_L [1] of 1 g, a KIDNEY_R [1] of 1 g and a KIDNEY_TOTAL [1] of 2 g. The ALP [1] was 1568.4 IU/L, the ALT [1] was 38.4 IU/L and the AST [1] was 70.6 IU/L. For the same sequence, the BUN [1] was 19 mg/dL, the CRE [1] was 0.2 mg/dL and the DBIL [1] was 0 mg/dL. It also gave a GLC [1] of 170.6 mg/dL, an IP [1] of 6.8 mg/dL and a K [1] of 4.7 meq/L. It also gave an LDH [1] of 175 IU/L, a PL [1] of 147.8 mg/dL and an RALB [1] of 3 g/dL. It also gave a TBIL [1] of 0.008 mg/dL, a TC [1] of 69.2 mg/dL and a TP [1] of 5.4 g/dL. For the same sequence, the gamma-GTP [1] was 1.8 IU/L, the TERMINAL_BW [3] was 256.1 g and the TERMINAL_BW [4] was 289.4 g. For the same sequence, the TERMINAL_BW [5] was 356.8 g, the APTT [6] was 24.3 s and the Bas [6] was 0%. For the same sequence, the Eos [6] was 1.2%, the Fbg [6] was 303.4 mg/dL and the Ht [6] was 39%. For the same sequence, the Lym [6] was 75%, the MCH [6] was 21 pg and the MCHC [6] was 34.7%. The MCV [6] was 60.6 fL, the Mono [6] was 4% and the PT [6] was 15.9 s. For the same sequence, the Plat [6] was 111.1 x10_4/uL, the RBC [6] was 644.4 x10_4/ul and the Ret [6] was 4.1%. For the same sequence, the WBC [6] was 106.4 x10_2/uL, the APTT [7] was 22.8 s and the Bas [7] was 0%. For the same sequence, the Eos [7] was 0.8%, the Fbg [7] was 296.4 mg/dL and the Ht [7] was 40.3%. For the same sequence, the Lym [7] was 81.4%, the MCHC [7] was 35.7% and the MCV [7] was 58.2 fL. It also gave a Mono [7] of 2.2%, a Plat [7] of 106 x10_4/uL and an RBC [7] of 693.6 x10_4/ul. It also gave a Ret [7] of 3.2%, a WBC [7] of 131.7 x10_2/uL and an APTT [8] of 23.3 s. The Bas [8] was 0%, the Eos [8] was 0.8% and the Fbg [8] was 308 mg/dL. The Hb [8] was 15.3 g/dL, the Ht [8] was 42.9% and the Lym [8] was 80.4%. For the same sequence, the MCH [8] was 19.2 pg, the MCHC [8] was 35.7% and the MCV [8] was 53.7 fL. It also gave a Mono [8] of 2.4%, a Plat [8] of 107.2 x10_4/uL and an RBC [8] of 799 x10_4/ul. It also gave a Ret [8] of 1.8%, a WBC [8] of 106 x10_2/uL and a KIDNEY_L [3] of 1.1 g. It also gave a KIDNEY_R [3] of 1.1 g, a KIDNEY_TOTAL [3] of 2.1 g and a KIDNEY_L [4] of 1.2 g. For the same sequence, the KIDNEY_R [4] was 1.2 g, the KIDNEY_TOTAL [4] was 2.4 g and the KIDNEY_L [5] was 1.5 g. For the same sequence, the KIDNEY_R [5] was 1.6 g, the KIDNEY_TOTAL [5] was 3.1 g and the LIVER [3] was 10.8 g. It also gave an LIVER [4] of 10.8 g, an LIVER [5] of 12.3 g and an ALP [3] of 1481.6 IU/L. It also gave an ALT [3] of 40.6 IU/L, a BUN [3] of 17 mg/dL and a CRE [3] of 0.2 mg/dL. It also gave a DBIL [3] of 0 mg/dL, a GLC [3] of 174.8 mg/dL and an IP [3] of 6.1 mg/dL. For the same sequence, the K [3] was 4.5 meq/L, the LDH [3] was 152.6 IU/L and the PL [3] was 146.8 mg/dL. For the same sequence, the RALB [3] was 3 g/dL, the TBIL [3] was 0.006 mg/dL and the TC [3] was 72 mg/dL. For the same sequence, the TG [3] was 131.4 mg/dL, the TP [3] was 5.6 g/dL and the gamma-GTP [3] was 1.6 IU/L. It also gave an ALP [4] of 1265.2 IU/L, an ALT [4] of 36.8 IU/L and an AST [4] of 67.6 IU/L. For the same sequence, the CRE [4] was 0.2 mg/dL, the DBIL [4] was 0 mg/dL and the GLC [4] was 176.4 mg/dL. For the same sequence, the IP [4] was 5.9 mg/dL, the K [4] was 4.3 meq/L and the LDH [4] was 144.8 IU/L. For the same sequence, the PL [4] was 140.2 mg/dL, the RALB [4] was 3 g/dL and the TBIL [4] was 0.008 mg/dL. For the same sequence, the TC [4] was 68.6 mg/dL, the TG [4] was 114 mg/dL and the TP [4] was 5.7 g/dL. It also gave a gamma-GTP [4] of 1.8 IU/L, an ALP [5] of 959 IU/L and an ALT [5] of 31 IU/L. The CRE [5] was 0.3 mg/dL, the DBIL [5] was 0.002 mg/dL and the GLC [5] was 176.4 mg/dL. The IP [5] was 5.6 mg/dL, the K [5] was 4.2 meq/L and the LDH [5] was 109.8 IU/L. For the same sequence, the PL [5] was 130 mg/dL, the RALB [5] was 3 g/dL and the TBIL [5] was 0.01 mg/dL. The TC [5] was 68.4 mg/dL and the TG [5] was 103 mg/dL.

Reference: ChEMBL document CHEMBL3885861, “Open TG-GATES”
